Assay results reported in patent US20260297106A1, “SPIROCYCLIC SUBSTITUTED OXOISOINDOLINYL PIPERIDINE-2,6-DIONE COMPOUND” (Bristol-Myers Squibb Company, priority 2023, published 2026).
Where two headings read alike, the source gives them in different places.

What was measured:
[1] = biological target: IKZF3 Aiolos (Homo sapiens, UniProt Q96SW2+Q9UKT9); test: Human CD8+ T Cell Reprogramming Assay (IKZF3 Aiolos); type: cell-based; parameters: Cryopreserved healthy donor human peripheral blood mononuclear cells; endogenous in cells; host or cells: primary human PBMC, CD8+ T cells read by flow cytometry
IKZF3 Aiolos, sequence (Q9UKT9 whole entry): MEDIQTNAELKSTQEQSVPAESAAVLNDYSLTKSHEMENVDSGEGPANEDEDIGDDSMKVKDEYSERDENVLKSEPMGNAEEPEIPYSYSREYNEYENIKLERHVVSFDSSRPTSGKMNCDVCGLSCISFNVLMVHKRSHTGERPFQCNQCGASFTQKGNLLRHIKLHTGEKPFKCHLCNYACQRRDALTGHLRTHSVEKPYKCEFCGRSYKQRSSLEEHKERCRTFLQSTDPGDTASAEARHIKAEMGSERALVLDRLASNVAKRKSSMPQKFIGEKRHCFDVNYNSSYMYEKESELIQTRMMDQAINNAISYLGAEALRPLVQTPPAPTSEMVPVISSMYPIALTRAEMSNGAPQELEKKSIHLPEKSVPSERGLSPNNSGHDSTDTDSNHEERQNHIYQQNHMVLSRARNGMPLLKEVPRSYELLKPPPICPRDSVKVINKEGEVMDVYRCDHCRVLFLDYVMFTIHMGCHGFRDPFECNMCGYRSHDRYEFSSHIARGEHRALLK
IKZF3 Aiolos, sequence (Q96SW2 whole entry): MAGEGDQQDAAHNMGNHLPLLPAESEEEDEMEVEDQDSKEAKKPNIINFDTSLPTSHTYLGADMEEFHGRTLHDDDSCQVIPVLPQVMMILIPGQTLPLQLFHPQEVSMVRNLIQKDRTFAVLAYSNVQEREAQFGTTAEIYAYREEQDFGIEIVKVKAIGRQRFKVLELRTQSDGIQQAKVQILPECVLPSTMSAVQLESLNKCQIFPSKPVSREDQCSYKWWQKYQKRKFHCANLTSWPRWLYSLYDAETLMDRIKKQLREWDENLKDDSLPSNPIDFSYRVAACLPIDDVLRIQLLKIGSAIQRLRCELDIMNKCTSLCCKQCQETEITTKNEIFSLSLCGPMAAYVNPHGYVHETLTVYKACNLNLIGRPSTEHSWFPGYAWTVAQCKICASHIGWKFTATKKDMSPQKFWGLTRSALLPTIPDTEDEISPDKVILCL
IKZF3 Aiolos, sequence (Q16531 whole entry partner): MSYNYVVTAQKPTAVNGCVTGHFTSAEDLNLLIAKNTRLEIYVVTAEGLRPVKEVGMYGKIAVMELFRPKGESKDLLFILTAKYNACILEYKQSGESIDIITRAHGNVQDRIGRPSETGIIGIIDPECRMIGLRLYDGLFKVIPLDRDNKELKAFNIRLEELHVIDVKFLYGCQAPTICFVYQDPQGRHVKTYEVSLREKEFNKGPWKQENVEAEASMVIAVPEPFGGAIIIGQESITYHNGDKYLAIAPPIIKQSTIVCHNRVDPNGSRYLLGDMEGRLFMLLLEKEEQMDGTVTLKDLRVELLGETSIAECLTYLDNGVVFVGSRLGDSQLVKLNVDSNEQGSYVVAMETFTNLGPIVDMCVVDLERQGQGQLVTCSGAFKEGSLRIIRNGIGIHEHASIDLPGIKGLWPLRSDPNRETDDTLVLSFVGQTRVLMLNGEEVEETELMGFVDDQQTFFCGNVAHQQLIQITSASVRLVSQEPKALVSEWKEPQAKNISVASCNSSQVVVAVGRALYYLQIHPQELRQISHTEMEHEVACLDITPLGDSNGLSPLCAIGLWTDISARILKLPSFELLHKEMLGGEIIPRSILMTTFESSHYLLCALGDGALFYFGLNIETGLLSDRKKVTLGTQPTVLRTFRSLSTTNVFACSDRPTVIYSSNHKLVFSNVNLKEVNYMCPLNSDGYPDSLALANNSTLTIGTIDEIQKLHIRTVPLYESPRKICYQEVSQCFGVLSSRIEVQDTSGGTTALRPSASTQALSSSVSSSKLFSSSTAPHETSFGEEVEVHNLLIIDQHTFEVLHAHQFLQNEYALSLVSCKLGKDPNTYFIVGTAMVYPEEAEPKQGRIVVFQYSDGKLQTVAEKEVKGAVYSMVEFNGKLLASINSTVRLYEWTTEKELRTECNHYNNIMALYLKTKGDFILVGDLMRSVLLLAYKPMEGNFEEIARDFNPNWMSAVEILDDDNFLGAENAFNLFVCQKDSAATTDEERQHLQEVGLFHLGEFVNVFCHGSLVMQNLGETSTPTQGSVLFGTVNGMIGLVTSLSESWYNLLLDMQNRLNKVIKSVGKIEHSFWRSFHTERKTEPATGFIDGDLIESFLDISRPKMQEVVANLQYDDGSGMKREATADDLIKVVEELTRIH
Procedure: Cryopreserved healthy donor human peripheral blood mononuclear cells (PBMC) from healthy donors were thawed and seeded at 500,000 cells/well of 96-well round bottom plates in RPMI 1640 media (Gibco) supplemented with 10% FBS, Pen/Strep (Gibco), MEM-NEAA (Gibco), and sodium pyruvate (Gibco). Cells were treated with titrated doses of compound for 24 hours at 37° C., 5% CO2 before analyzing by flow cytometry.
For flow cytometry staining, cells were washed twice with flow cytometry staining buffer (Thermo Fisher) and incubated in Human Tru-stain Fc block (Biolegend) for 10 minutes before adding eFluor780 viability dye (Thermo Fisher) and surface marker antibody cocktail containing LD-eFluor780, CD3-BUV-395, CD4-BUV805, CD8-FITC, and CD25-BV605 for 30 minutes at 4° C. Cells were then fixed and permeabilized by incubation with permeabilization buffer (eBioscience FoxP3 buffer set 00-5523-00) for 30 minutes at 4° C. as per the kit manufacturer's instructions. Cells were washed twice with the Perm/Wash buffer supplied in the kit as per the manufacturer's instructions and incubated overnight at 4° C. with an intracellular antibody cocktail comprised of antibodies specific for the transcription factors (i.e., Foxp3-BV421, HELIOS-PE-Cy7, EOS-PE, IKAROS-PECF594, AIOLOS-AF647). Cells were washed twice with Perm/Wash buffer and resuspended in flow cytometry staining buffer (Thermo Fisher) prior to acquisition. Sample acquisition and analysis was performed using a BD LSRFortessa (BD Biosciences) flow cytometer. Single-stain controls for each fluorochrome were prepared using UltraComp eBead Compensation Beads (Thermo Fisher). Data were analyzed using FlowJo version 10 and GraphPad Prism Software.
Table D-1 lists the maximum observed degradation of the IKZF1 protein and IKZF3 protein as measured in the Human CD8^+ T Cell Reprogramming assay. The results in Table D-1 were rounded to two digits. In the Human CD8^+ T Cell Reprogramming assay, a value of 100% indicated no detectable protein remaining or complete degradation of the protein; and a value of 0% indicated no detectable degradation of the protein by the test compound.

[2] = biological target: IKZF2 Helios (Homo sapiens, UniProt Q96SW2+Q9UKS7); test: Human Regulatory T Cell Degradation Assay (IKZF2 Helios); type: cell-based; parameters: T cells were isolated from fresh healthy leukopaks; endogenous in cells; host or cells: FACS-sorted primary human CD4+ CD127low CD25+ Treg cells from healthy leukopaks; details: human regulatory T cells, 20 hours; for Dmax: Regulatory T cell, 100% = no detectable protein remaining, read-out: IKZF2 Helios max % deg. observed; for DC50: concentration reducing protein level by 50% vs DMSO
IKZF2 Helios, sequence (Q9UKS7 whole entry): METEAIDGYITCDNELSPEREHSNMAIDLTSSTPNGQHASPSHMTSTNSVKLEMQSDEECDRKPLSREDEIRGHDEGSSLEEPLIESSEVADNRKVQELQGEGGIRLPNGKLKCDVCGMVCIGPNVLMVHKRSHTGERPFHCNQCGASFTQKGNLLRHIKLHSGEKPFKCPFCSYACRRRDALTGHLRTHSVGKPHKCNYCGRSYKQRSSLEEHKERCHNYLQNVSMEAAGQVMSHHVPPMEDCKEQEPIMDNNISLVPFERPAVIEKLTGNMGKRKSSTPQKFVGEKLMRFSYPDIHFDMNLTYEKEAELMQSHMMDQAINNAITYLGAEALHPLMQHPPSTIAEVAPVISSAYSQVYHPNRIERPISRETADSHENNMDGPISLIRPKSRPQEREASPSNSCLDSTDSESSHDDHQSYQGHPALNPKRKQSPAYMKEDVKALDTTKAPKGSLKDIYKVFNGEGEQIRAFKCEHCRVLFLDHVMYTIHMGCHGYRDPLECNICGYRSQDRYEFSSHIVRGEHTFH
IKZF2 Helios, sequence (Q96SW2 whole entry): as the sequence (Q96SW2 whole entry) above
IKZF2 Helios, sequence (Q16531 whole entry partner): as the sequence (Q16531 whole entry partner) above
Procedure: Cryopreserved human regulatory T cells were thawed in RPMI+10% FBS+20 ng/mL IL-2. After being spun at 1200 rpm for 5 mins, the cells were resuspended in RPMI+10% FBS+20 ng/ml and rested at 37° C. with 5% CO2 for 3 hours. The cells were then plated at 40,000 cells/well in 40 μL RPMI+10% FBS+20 ng/ml human IL~2 in a 384 well cell culture plate prior to using acoustic dispensing technology (ECHO 555) for adding compounds of interest. Cell cultures were incubated for 20 hours at 37° C. and 5% CO2. In order to facilitate analysis, cell cultures were spun down at 1200 rpm for 5 minutes and the supernatant was discarded using an EL406 plate washer. After washing three times with 70 μL PBS, cell pellets were resuspended in 50 μL of near IR viability staining solution (Life Technologies, Cat #L34975) and incubated for 30 minutes on ice protected from light. Cells were washed three times with 70 μL PBS+0.5% BSA using an EL406 plate washer. After shaking the plate to dislodge the cell pellet, cells were resuspended in 50 μL of Fixation Buffer (eBioScience FoxP3 buffer set 00-5523-00) for 60 minutes at room temperature. After centrifuging and discarding the supernatant, cells were permeabilized with 50 μL of permeabilization buffer (eBioScience FoxP3 buffer set 00-5523-00) for 10 minutes at room temperature. Following permeabilization, cells were spun down and the supernatant was replaced with 30 μL fluorescently labelled antibodies against the intracellular targets Helios (Helios-APC [BioLegend, Cat #137222, 1:50])]), Aiolos, and Ikaros Ix Permeabilization buffer and staining reactions were incubated for 1 hour at room temperature; protected from light. Subsequently, 30 μL of 1× Permeabilization buffer was added prior to centrifuging the cells and discarding the supernatant. Stained cells were resuspended in 30 μL of flow cytometry staining buffer (PBS+0.5% BSA) and analyzed using an Intellicyt Ique Plus flow cytometer.
Table B-1 lists the maximum observed degradation of the IKZF1 protein and IKZF2 protein as measured in the Human Regulatory Cell T Degradation assay. The results in Table B-1 were rounded to two digits. In the Human Regulatory T Cell Degradation assay, a value of 100% indicated no detectable protein remaining or complete degradation of the protein; and a value of 0% indicated no detectable degradation of the protein by the test compound.

[3] = human PBMC, CD8+ T cells, 24 hours, read-out: Maximum Observed Degradation IKZF3 Aiolos

Dmax [1, 3] [%]	Dmax [2] [%]	DC50 [2] [µM]	DC50 ([1]; human PBMC, CD8+ T cells, 24 hours, concentration reducing protein level by 50% vs DMSO) [µM]	Dmax ([1]; human, 24 h, Table D-1, read-out: decreased the level of IKZF3 (Aiolos)) [%]	Dmax ([1]; human, 24 h, Table E comparison, from Table D-1, read-out: IKZF3 Aiolos max % deg. observed) [%]	Structure (SMILES)
39	101	0.0029				O=C1CCC(N2Cc3c(ccc(-c4cc(CN5CC(c6ccccc6)C5)ccn4)c3F)C2=O)C(=O)N1 (stereo not drawn) [Comparative Compound A, 3-(4-fluoro-1-oxo-5-(4-((3-phenylazetidin-1-yl)methyl)pyridin-2-yl)isoindolin-2-yl) piperidine-2,6-dione]
2	97	0.011				Nc1nc(-c2ccc3c(c2)CN(C2CCC(=O)NC2=O)C3=O)ccc1CN1CC2(CCC2)C1 (stereo not drawn) [Comparative Compound B, 3-(5-(5-((2-azaspiro[3.3]heptan-2-yl)methyl)-6-aminopyridin-2-yl)-1-oxoisoindolin-2-yl) piperidine-2,6-dione]
62 to 66	100	0.01	0.023 to 0.035	62 to 66	62 to 66	Nc1nc(-c2ccc3c(c2F)CN(C2CCC(=O)NC2=O)C3=O)ccc1CN1CC2(CCCOC2)C1 (stereo not drawn) [Example 1, 3-(5-(5-((6-oxa-2-azaspiro[3.5]nonan-2-yl)methyl)-6-aminopyridin-2-yl)-4-fluoro-1-oxoisoindolin-2-yl) piperidine-2,6-dione]
